Data from publication PMC8838521, “Antimicrobial, Cytotoxic and Mutagenic Activity of Gemini QAS Derivatives of 1,4:3,6-Dianhydro-L-iditol” (Molecules, 2022).
Where “and” joins values, the source holds several entries; their conditions need not be identical. Equal values may be shown once. Entries after “also recorded” stand apart in the source; their conditions may differ.

Tests used:
[1] = system: Candida albicans ATCC 10231; assay: Antimicrobial activity, microdilution MIC, C. albicans; type: cell-based; details: Candida albicans, ATCC10231, 24 h, MIC90, 24 h, RPMI; read-out: MIC C. albicans ATCC 10231
Procedure: (§1) The antimicrobial potential of the tested agents was evaluated against two reference strains of bacteria: Staphylococcus aureus ATCC 25923 and Escherichia coli K12, two reference strains of pathogenic yeasts, Candida albicans ATCC10231 and Candida glabrata DSMZ11226, as well as 20 strains of clinical isolates of S. aureus collected from patients with skin and soft tissue infections (n = 8) and strains derived from subclinical bovine mastitis milk samples (n = 12). Four of these strains, two isolated from human infections and two isolated from bovine mastitis, were classified as MRSA (Methicillin-resistant Staphylococcus aureus). All of them were mecA positive and their methicillin resistance was confirmed with the disc diffusion assay. The remaining 16 strains were MSSA (Methicillin-sensitive Staphylococcus aureus). The assays were performed using a serial, two-fold dilution method in 96-well microtiter plates under conditions recommended by the Clinical and Laboratory Standards Institute (CLSI, Pittsburgh, PA, USA). The aim of this procedure was the determination of the MIC parameter (Minimum Inhibitory Concentration)—the minimum concentration of a tested agent capable to inhibit the growth of a specified strain of microorganism. The agents were solubilized in deionized, sterile water to a final concentration of […]. Subsequently, solutions were mixed (1:1 (v/v)) with 2 × concentrated liquid medium, Mueller-Hinton Broth 2—cation adjusted (MHB2) for evaluation of antibacterial activity and RPMI in the case of evaluation of the antifungal activity. […] Subsequently, the solutions were mixed with MHB2 or RPMI medium to get the final concentration of 8.192 mg/mL (8192 µg/mL). In the next step, the serial, two-fold dilutions of the tested agents (over the range of concentrations from 8192 to 8 µg/mL for reference strains of bacteria and yeasts and from 512 to 1.0 µg/mL for clinical isolates of S. aureus) were prepared in 96-well microtitration plates in the final volume of 100 μL of the appropriate medium.
(§2) The pure cultures of yeast strains were grown on the Sabouraud Dextrose Agar (SDA) for 18–24 h at 37 °C. Suspensions of the microorganisms were prepared by taking one loop of pure culture into sterile water and adjusting optical density to 0.1 at 660 nm and further 50-fold dilution in RPMI 1640 medium resulting in cells concentration of approximate 2 × 10^4 CFU/mL. One hundred μL of that suspension was inoculated to the wells of the microtitration plate containing appropriate dilutions of the agents. The positive growth control of each strain (both bacteria and yeasts) was performed in the wells without the tested substances. The negative control containing only the media was included in each assay. Microtiter plates were incubated at 37 °C for 24 h. Following the incubation period, determination of the MIC values of the tested agents was carried out by measuring the absorbance at 531 nm using a Victor^3 microplate reader (Perkin Elmer, Inc., Waltham, MA, USA). The lowest concentration of the agent causing inhibition of growth equal to or higher than 90% (MIC90) of growth control was taken as the MIC value. Each test was repeated three times.

Escherichia coli K12 = assay: Antimicrobial activity, microdilution MIC, E. coli; type: cell-based; details: Escherichia coli, K12, 24 h, MIC90, 24 h, MHB2; read-out: MIC E. coli K12
Procedure: as §1
The pure bacterial cultures of (both the reference and clinical strains) were grown on the Mueller-Hinton Agar (MHA) for 18–24 h at 37 °C. A small amount of the biomass of the culture of each strain of microorganisms was suspended in the sterile PBS (phosphate buffered saline, pH 7.4 at 25 °C, purchased from Sigma) solution to get an optical density OD600 = 0.13 (equal to the cells concentration approximately 1 × 10^8 CFU/mL). The obtained suspensions of the cells were next diluted 1:100 (v/v) in the MHB2 medium. One hundred µL of the cells’ suspension was finally loaded into the wells of plates prepared in advance, which contained 100 µL of two-fold dilutions of the tested agents (the final concentration of the bacterial cells in all wells was approximately 5 × 10^5 CFU/mL).
as §2, with “times. […]” for “times.”

[2] = system: human keratinocytes (HaCaT cell line); assay: Cytotoxicity, MTT assay; type: cell-based; details: Homo sapiens, HaCaT; MTT, 24 h incubation; read-out: HaCaT IC50
Procedure: To assess the cytotoxicity of QAS (IC50), the MTT assay on 96-well polystyrene plates was performed for human keratinocytes (HaCaT, Elabscience Biotechnology Inc., Houston, Texas, USA). The assay utilizes colorimetric determination of the cell metabolic activity and the color intensity reflects the number of live cells that can be measured spectrophotometrically. The cell line was cultured in a Dulbecco’s modified Eagle Medium (Invitrogen) supplemented with 10% fetal bovine serum (Sigma Aldrich) (v/v), 100 units/mL of penicillin, 100 μg/mL of streptomycin, and 2 mM L-glutamine and was stored at 37 °C in a humidified 5% CO2 incubator. Briefly, a day after plating of 500 cells per well, a series of concentrations (0.5–200 μg/mL) of the test compounds was applied. DMSO was added to the control cells at a final concentration of 1.0% (v/v), which was related to the maximal concentration of the solvent compounds used in the experiment. After 24 h of incubation with the QAS at 37 °C (humidified 5% CO2 incubator), a medium containing 1 mg/mL of MTT (3-(4,5-dimethylthiazol-2-yl)-2,5-diphenyltetrazolium bromide) was added to the wells up to a final concentration of 0.5 mg/mL. Subsequently, the plates were incubated at 37 °C for 4 h. Then, the medium was removed by suction, and the formazan product was solubilized with DMSO. The background absorbance at 630 nm was subtracted from that at 570 nm for each well (Epoch, BioTek Instruments, Winooski, VT, USA). Six replicates were conducted for each concentration. All experiments were repeated at least twice and the resulting IC50 values were calculated with GraFit 7 software (v. 7.0, Erithacus, Berkley, CA, USA).

[3] = Solubility observed during assays; type: physicochemical; details: for Solubility in water and DMSO: for Ames test; for Solubility in water: observed during antimicrobial assays, DMSO used for solubilisation

MIC [1] | MIC (Escherichia coli K12) | SMILES | IC50 [2] [µg/mL] | Solubility in water and DMSO [3] | Solubility in water [3]
32 µg/mL and 40 µM | 32 µg/mL and 40 µM | CCCCCCCCCC[N+](C)(C)C1COC2C1OCC2[N+](C)(C)CCCCCCCCCC [QAS 10, N,N’-(1,4:3,6-Dianhydro-2,5-dideoxy-L-iditol-2,5-diyl)-bis(N,N-dimethyl-N-decylammonium) Ditrifluoromethanesulfonate] | 12.8 ± 1.25 | insufficient solubility in both water and DMSO | suppressed water solubility; also recorded: lower solubility in water
1020 µg/mL and 1410 µM | 2050 µg/mL and 2820 µM | CCCCCCCC[N+](C)(C)C1COC2C1OCC2[N+](C)(C)CCCCCCCC (stereo not shown) [QAS 9] | > 100 | insufficient solubility in both water and DMSO | suppressed water solubility; also recorded: lower solubility in water
